# Biological target: T1, human IL-17AA (Homo sapiens, UniProt Q16552)
# T1 construct: host or cells: HEK (human embryonic kidney) cells
# T1 sequence (Q16552 24-155): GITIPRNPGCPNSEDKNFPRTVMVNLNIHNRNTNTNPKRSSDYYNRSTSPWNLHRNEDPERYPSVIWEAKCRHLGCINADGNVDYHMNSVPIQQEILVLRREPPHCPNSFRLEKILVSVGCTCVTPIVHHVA
# Assay: IL-8 release assay in human epithelial keratinocytes adult (HEKa)
# Assay type: cell-based
# Settings: HEKa cells, 3 ng/mL HEK-human IL-17AA + 10 ng/mL human TNFalpha; read-out: Rel EC50 IL-8 release assay
# How it was run: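 Adult human epidermal keratinocytes stimulated 68-72 h at 37 °C with 3 ng/mL HEK-derived human IL-17AA plus 10 ng/mL TNF-alpha (final) in the presence of compound; TNF-alpha alone defines 100% inhibition. Secreted IL-8 measured by HTRF as percent of controls; relative IC50/Emax from four-parameter fit (r^2>0.9), cytotoxicity by PrestoBlue.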
row,SMILES,EC50 [µM]
1,"Cc1n[nH]c(C)c1-c1ccc(NC(=O)[C@@H](NC(=O)c2ccnn2C)C(C2CC2)C2CC2)cc1 [Example 117, N-[(1S)-1-(dicyclopropylmethyl)-2-[4-(3,5-dimethyl-1H-pyrazol-4-yl)anilino]-2-oxo-ethyl]-2-methyl-pyrazole-3-carboxamide]",< 0.1
2,CCC(CC)[C@H](NC(=O)c1ccnn1C)C(=O)Nc1ccc(-c2c(C)n[nH]c2C)cc1 [Example 118],0.1 to 1
3,Cc1n[nH]c(C)c1-c1ccc(NC(=O)[C@@H](NC(=O)c2ccnn2C(C)CO)C(C2CC2)C2CC2)cc1 (some centres unmarked) [Example 120],0.1 to 1
4,CCC(CC)[C@H](NC(=O)c1ccnn1C(C)C)C(=O)Nc1ccc(-c2c(C)n[nH]c2C)cc1 [Example 121],0.1 to 1
5,Cc1n[nH]c(C)c1-c1ccc(NC(=O)[C@@H](NC(=O)c2ccnn2CCO)C(C2CCC2)C2CCC2)cc1 [Example 122],< 0.1
6,"Cc1n[nH]c(C)c1-c1ccc(NC(=O)[C@@H](NC(=O)c2ccnn2C)[C@H]2CC[C@H](C)CC2)cc1 [Example 125, Trans N-[(1S)-2-[4-(3,5-dimethyl-1H-pyrazol-4-yl)anilino]-1-(4-methylcyclohexyl)-2-oxo-ethyl]-2-methyl-pyrazole-3-carboxamide]",< 0.1
7,"CCn1nccc1C(=O)N[C@H](C(=O)Nc1ccc(-c2c(C)n[nH]c2C)cc1)[C@H]1CC[C@H](C)CC1 [Example 126, Trans N-[(1S)-2-[4-(3,5-dimethyl-1H-pyrazol-4-yl)anilino]-1-(4-methylcyclohexyl)-2-oxo-ethyl]-2-ethyl-pyrazole-3-carboxamide]",< 0.1
8,"Cc1n[nH]c(C)c1-c1ccc(NC(=O)[C@@H](NC(=O)c2ccnn2C(C)C)[C@H]2CC[C@H](C)CC2)cc1 [Example 127, Trans N-[(1S)-2-[4-(3,5-dimethyl-1H-pyrazol-4-yl)anilino]-1-(4-methylcyclohexyl)-2-oxo-ethyl]-2-isopropyl-pyrazole-3-carboxamide]",< 0.1
9,"CCC(C)n1nccc1C(=O)N[C@H](C(=O)Nc1ccc(-c2c(C)n[nH]c2C)cc1)C(C1CC1)C1CC1 (stereo partly drawn) [Example 128, N-[(1S)-1-(dicyclopropylmethyl)-2-[4-(3,5-dimethyl-1H-pyrazol-4-yl)anilino]-2-oxo-ethyl]-2-sec-butyl-pyrazole-3-carboxamide]",< 0.1
10,"Cc1n[nH]c(C)c1-c1ccc(NC(=O)[C@@H](NC(=O)c2ccnn2CC2CC2)C(C2CC2)C2CC2)cc1 [Example 129, 2-(cyclopropylmethyl)-N-[(1S)-1-(dicyclopropylmethyl)-2-[4-(3,5-dimethyl-1H-pyrazol-4-yl)anilino]-2-oxo-ethyl]pyrazole-3-carboxamide]",< 0.1
11,"Cc1n[nH]c(C)c1-c1ccc(NC(=O)[C@@H](NC(=O)c2ccnn2CCC(F)(F)F)C(C2CC2)C2CC2)cc1 [Example 130, N-[(1S)-1-(dicyclopropylmethyl)-2-[4-(3,5-dimethyl-1H-pyrazol-4-yl)anilino]-2-oxo-ethyl]-2-(3,3,3-trifluoropropyl)pyrazole-3-carboxamide]",< 0.1
12,"Cc1n[nH]c(C)c1-c1ccc(NC(=O)[C@@H](NC(=O)c2ccnn2CCN(C)C)C(C2CC2)C2CC2)cc1 [Example 131, N-[(1S)-1-(dicyclopropylmethyl)-2-[4-(3,5-dimethyl-1H-pyrazol-4-yl)anilino]-2-oxo-ethyl]-2-(2-dimethylaminoethyl) pyrazole-3-carboxamide]",0.1 to 1
13,"Cc1n[nH]c(C)c1-c1ccc(NC(=O)[C@@H](NC(=O)c2ccnn2CC(C)C)C(C2CC2)C2CC2)cc1 [Example 132, N-[(1S)-1-(dicyclopropylmethyl)-2-[4-(3,5-dimethyl-1H-pyrazol-4-yl)anilino]-2-oxo-ethyl]-2-isobutyl-pyrazole-3-carboxamide]",< 0.1
14,"CCCn1nccc1C(=O)N[C@H](C(=O)Nc1ccc(-c2c(C)n[nH]c2C)cc1)C(C1CC1)C1CC1 [Example 133, N-[(1S)-1-(dicyclopropylmethyl)-2-[4-(3,5-dimethyl-1H-pyrazol-4-yl)anilino]-2-oxo-ethyl]-2-propyl-pyrazole-3-carboxamide]",< 0.1
15,"Cc1n[nH]c(C)c1-c1ccc(NC(=O)[C@@H](NC(=O)c2ccnn2[C@@H](C)CO)[C@@H]2C[C@H](C)C[C@H](C)C2)cc1 [Example 141, N-[(1S)-1-[(3R,55)-3,5-dimethylcyclohexyl]-2-[4-(3,5-dimethyl-1H-pyrazol-4-yl)anilino]-2-oxo-ethyl]-2-[(1S)-2-hydroxy-1-methyl-ethyl]pyrazole-3-carboxamide]",< 0.1
16,"Cc1n[nH]c(C)c1-c1ccc(NC(=O)[C@@H](NC(=O)c2ccnn2C)C2C[C@@H](C)C[C@@H](C)C2)cc1 (stereo partly drawn) [Example 146, N-[(1S)-1-[(3R,5S)-3,5-dimethylcyclohexyl]-2-[4-(3,5-dimethyl-1H-pyrazol-4-yl)anilino]-2-oxo-ethyl]-2-methyl-pyrazole-3-carboxamide]",< 0.1

# More lines, now with the values ahead:
row,EC50 [µM],SMILES
1,< 0.1,"Cc1n[nH]c(C)c1-c1ccc(NC(=O)[C@@H](NC(=O)c2ccnn2C)C2C[C@@H](C)C[C@@H](C)C2)cc1 (stereo partly drawn) [Example 147, N-[(1S)-1-[(3R,5S)-3,5-dimethylcyclohexyl]-2-[4-(3,5-dimethyl-1H-pyrazol-4-yl)anilino]-2-oxo-ethyl]-2-methyl-pyrazole-3-carboxamide]"
2,< 0.1,"Cc1n[nH]c(C)c1-c1ccc(NC(=O)[C@@H](NC(=O)c2cnnn2C(C)C)[C@H]2CC[C@H](C)CC2)cc1 [Example 148, N-[(1S)-2-[4-(3,5-dimethyl-1H-pyrazol-4-yl)anilino]-1-(4-methylcyclohexyl)-2-.oxo-ethyl]-3-isopropyl-tnazole-4-carboxamide]"
3,0.1 to 1,"CCn1nncc1C(=O)N[C@H](C(=O)Nc1ccc(-c2c(C)n[nH]c2C)cc1)[C@H]1CC[C@H](C)CC1 [Example 149, N-[(1S)-2-[4-(3,5-dimethyl-1H-pyrazol-4-yl)anilino]-1-(4-methylcyclohexyl)-2-oxo-ethyl]-3-ethyl-triazole-4-carboxamide]"
4,< 0.1,"Cc1n[nH]c(C)c1-c1ccc(NC(=O)[C@@H](NC(=O)c2ccnn2CCS(C)(=O)=O)C(C2CC2)C2CC2)cc1 [Example 158, N-[(1S)-1-(dicyclopropylmethyl)-2-[4-(3,5-dimethyl-1H-pyrazol-4-yl)anilino]-2-oxo-ethyl]-2-(2-methylsulfonylethyl) pyrazole-3-carboxamide]"
5,0.1 to 1,"Cc1n[nH]c(C)c1-c1ccc(NC(=O)[C@@H](NC(=O)c2ncnn2C(C)C)C(C2CC2)C2CC2)cc1 [Example 162, N-[(1S)-1-(dicyclopropylmethyl)-2-[4-(3,5-dimethyl-1H-pyrazol-4-yl)anilino]-2-oxo-ethyl]-2-isopropyl-1,2,4-triazole-3-carboxamide]"
6,> 1,"Cc1n[nH]c(C)c1-c1ccc(NC(=O)[C@@H](NC(=O)c2ncnn2C)C(C2CC2)C2CC2)cc1 [Example 163, N-[(1S)-1-(dicyclopropylmethyl)-2-[4-(3,5-dimethyl-1H-pyrazol-4-yl)anilino]-2-oxo-ethyl]-2-methyl-1,2,4-triazole-3-carboxamide]"
7,< 0.1,"Cc1n[nH]c(C)c1-c1ccc(NC(=O)[C@@H](NC(=O)c2ccnn2CCCO)C(C2CCC2)C2CCC2)cc1 [Example 166, N-[(1S)-1-[di(cyclobutyl)methyl]-2-[4-(3,5-dimethyl-1H-pyrazol-4-yl)anilino]-2-oxo-ethyl]-2-(3-hydroxypropyl)pyrazole-3-carboxamide]"

# Reference: patent publication US11377425B1, “Small molecule modulators of IL-17” (LEO Pharma A/S, priority 2018, dated 2022)
